Values quoted from earlier work as cited in US20210402001A1, “Zinc Porters, and their Monoclonal Antibody Conjugates, for the Prevention and Treatment of COVID-19 (SARS-CoV-2), Other Infections, and Cancers” (priority 2020, published 2021).

Columns and labels:
[1] = oxidized HDEFA5
[2] = system: trypsin; settings: reduced state, five trypsin cleavage sites
[3] = intranasal
[4] = system: blood platelets; settings: healthy individuals, single oral dose of 220 mg

Compound	Zn dissociation constant [1]	degradation by gut trypsin [2]	loss of smell (anosmia) [3]	platelet activity [4]
ATCYCRTGRCATRESLSGVCEISGRLYRLCCR [HDEFA5]	picomolar	rapidly degraded		
O=S(=O)([O-])[O-].[Zn+2] [Zn sulfate]			profound acute anosmia	hyperactive
